# Test results reported in the supplement of paper PMC11061612.
# Tests used:
# Test in all cases: combination Emax (second highest fraction inhibited in the dose matrix, 72 h); higher = more inhibition; extreme values may be limits of the assay
# [1] = system: SNU-407 (Colorectal Carcinoma)
# Outline: (§1)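 Cell lines grown in DMEM/F12 or RPMI with 10% FBS were plated in 1536-well plates and held 24 hours at 37°C, 5% CO2 before 72 hours of exposure to two-drug dose matrices, with DMSO typically at 0.2%. CellTiter-Glo 2.0 luminescence gave viability, which was converted to inhibition. Vehicle wells were set to 0 and blank wells to 1. Combination Emax is the second-highest inhibition in the matrix, and Bliss excess is the observed combination effect minus the expected EA + EB − EA·EB, where EA and EB are the single-agent effects.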
# [2] = system: P30-OHK (B-Lymphoblastic Leukemia)
# Outline: as §1
# [3] = system: NCI-H1876 (Small Cell Lung Carcinoma)
# Outline: as §1
# KALS-1 (Glioblastoma) = system: KALS-1 (Glioblastoma)
# Outline: as §1
# [4] = system: COR-L88 (Small Cell Lung Carcinoma)
# Outline: as §1
# T47D (Breast Carcinoma) = system: T47D (Breast Carcinoma)
# Outline: as §1
# [5] = system: LCLC-103H (Non-Small Cell Lung Carcinoma)
# Outline: as §1
# [6] = system: PL4 (Pancreatic Carcinoma)
# Outline: as §1
# [7] = system: MOLT-13 (T-Lymphoblastic Leukemia)
# Outline: as §1
# [8] = system: PA-TU-8988T (Pancreatic Carcinoma)
# Outline: as §1
# [9] = system: DBTRG-05MG (Glioblastoma)
# Outline: as §1
# GAK (Melanoma) = system: GAK (Melanoma)
# Outline: as §1
# [10] = system: P32-ISH (Burkitt's Lymphoma)
# Outline: as §1
# [11] = system: NAMALWA (Burkitt's Lymphoma)
# Outline: as §1
# [12] = system: OAW-28 (Ovarian Carcinoma)
# Outline: as §1
# [13] = system: T84 (Colorectal Carcinoma)
# Outline: as §1
# SK-N-SH (Neuroblastoma) = system: SK-N-SH (Neuroblastoma)
# Outline: as §1
# [14] = system: MOLP-8 (Plasma Cell Myeloma)
# Outline: as §1
# [15] = system: MONO-MAC-6 (Acute Myeloid Leukemia)
# Outline: as §1
# [16] = system: SUP-M2 (T-Cell Non-Hodgkin's Lymphoma)
# Outline: as §1
SMILES,combination Emax [1],combination Emax [2],combination Emax [3],combination Emax (KALS-1 (Glioblastoma)),combination Emax [4],combination Emax (T47D (Breast Carcinoma)),combination Emax [5],combination Emax [6],combination Emax [7],combination Emax [8],combination Emax [9],combination Emax (GAK (Melanoma)),combination Emax [10],combination Emax [11],combination Emax [12],combination Emax [13],combination Emax (SK-N-SH (Neuroblastoma)),combination Emax [14],combination Emax [15],combination Emax [16]
"COc1nnc2ccc(N3CCC(c4ccc(OCCN5CCN(C)C(=O)[C@H]5C)cc4)CC3)nn12 [AZD5153] + C[C@@H]1COCCN1C2=NC(=NC(=C2)C3(CC3)[S@](=N)(=O)C)C4=C5C=CNC5=NC=C4 [AZD6738] (first compound max 1 µM, 7x7, partner max 10 µM)",0.958,1,0.887,0.812,0.548,0.637,0.492,0.756,1,0.778,0.307,0.605,0.957,0.914,0.851,0.583,0.861,0.987,1,1
"CC(=O)Nc1cccc(-n2c(=O)n(C3CC3)c(=O)c3c(Nc4ccc(I)cc4F)n(C)c(=O)c(C)c32)c1 [Trametinib] + Cc1nc(-c2cn3c(n2)-c2ccc(-c4cnn(C(C)(C)C(N)=O)c4)cc2OCC3)n(C(C)C)n1 [Taselisib] (first compound max 1 µM, 7x7, partner max 10 µM)",0.905,0.49,0.796,0.951,0.154,0.643,0.539,0.951,0.698,0.762,0.69,0.985,0.508,0.589,0.589,0.96,0.827,1,1,0.534
"Cc1c2c(nn1C)CSCc1cc(n(C)n1)CSc1cc(c3ccccc3c1)OCCCc1c(C(=O)O)n(C)c3c-2c(Cl)ccc13 [AZD5991] + C[C@@H](Nc1cc(F)cc(F)c1)c1cc(C(=O)N(C)C)cc2c(=O)cc(N3CCOCC3)oc12 [AZD8186] (first compound max 1 µM, 7x7, partner max 3 µM)",0.672,0.805,0.711,0.436,0.221,0.504,0.352,0.421,1,0.45,0.266,0.349,1,0.986,0.418,0.139,0.481,1,1,0.996
"Cc1c2c(nn1C)CSCc1cc(n(C)n1)CSc1cc(c3ccccc3c1)OCCCc1c(C(=O)O)n(C)c3c-2c(Cl)ccc13 [AZD5991] + CCN(CCO)CCCOc1ccc2c(Nc3cc(CC(=O)Nc4cccc(F)c4)[nH]n3)ncnc2c1 [AZD2811] (first compound max 1 µM, 7x7, partner max 1 µM)",0.694,0.963,0.998,0.358,0.36,0.708,0.371,0.474,1,0.775,0.225,0.314,1,0.98,0.378,0.177,0.614,1,1,1
"Cc1cc2ncnn2cc1Nc1ncc2c(n1)n(C1CCOCC1)c(=O)n2C [AZD7648] + C[C@@H]1COCCN1C2=NC(=NC(=C2)C3(CC3)[S@](=N)(=O)C)C4=C5C=CNC5=NC=C4 [AZD6738] (first compound max 10 µM, 7x7, partner max 10 µM)",0.663,0.811,0.809,0.866,0.713,0.464,0.58,0.631,0.903,0.378,0.306,0.578,0.938,0.936,0.42,0.706,0.859,0.822,0.899,0.992
"CC1(C)CCC(CN2CCN(c3ccc(C(=O)NS(=O)(=O)c4ccc(NCC5CCOCC5)c([N+](=O)[O-])c4)c(Oc4cnc5[nH]ccc5c4)c3)CC2)=C(c2ccc(Cl)cc2)C1 [Venetoclax] + C[C@@H]1COCCN1C2=NC(=NC(=C2)C3(CC3)[S@](=N)(=O)C)C4=C5C=CNC5=NC=C4 [AZD6738] (first compound max 1 µM, 7x7, partner max 10 µM)",0.77,1,0.942,0.83,0.769,0.35,0.55,0.709,1,0.345,0.288,0.528,0.933,0.889,0.472,0.702,0.915,0.75,0.985,0.979
"CCN(CCO)CCCOc1ccc2c(Nc3cc(CC(=O)Nc4cccc(F)c4)[nH]n3)ncnc2c1 [AZD2811] + C[C@@H]1COCCN1C2=NC(=NC(=C2)C3(CC3)[S@](=N)(=O)C)C4=C5C=CNC5=NC=C4 [AZD6738] (first compound max 1 µM, 7x7, partner max 10 µM)",0.658,0.928,0.963,0.828,0.615,0.313,0.5,0.657,0.993,0.35,0.236,0.564,0.992,0.924,0.396,0.675,0.906,0.791,0.908,0.999
